Results reported in patent US12673935B2, “Pyrimidine derivative, and preparation method therefor and use thereof” (CGENETECH (SUZHOU, CHINA) CO., LTD., priority 2020, dated 2026).

Columns and labels:
MDA-MB-468 cells = experiment: Determination of activity of MDA-MB-468 cells (CellTiter-Glo); format: cell-based; conditions: Homo sapiens, MDA-MB-468, 120 h, 5 days culture
Experimental: • MDA-MB-468 (ATCC No. HTB-132); • RPMI 1640 (Invitrogen No. 22400089); • FBS (Hyclone No. SV30087.03); • Pen Strep (Hyclone No. SV30010); • CellTiter-Glo (Promega No. G7573); • Medium: 89% RPMI 1640, 10% FBS and 1% Pen Strep;
300 MDA-MB-468 cells and 50 μL of medium were inoculated in a plate with 100 μL of PBS buffer added, which was then cultured for 24 hours at 37° C./5% CO2, then 250 nL of samples, which were taken from the compounds to be tested at ten test points and diluted with four times DMSO, were added to the plate wells and cultured for 5 days at 37° C./5% CO2, then 25 μL of CellTiter-Glo was added to each plate well, followed by centrifugation by rotating (1000 rpm) for 15 seconds, and vibration mixing (400 rpm) for 10 minutes, the microplate reader Envision was started to read.

CDK2/human cyclin E = CDK2/human cyclin E (Homo sapiens, UniProt P24941); experiment: Determination of activity of CDK2 kinase (Caliper mobility shift); format: biochemical; conditions: 10 μM ATP, 0.1 nM enzyme, 25° C. 6 hours; read-out: CDK2/CycE IC50
Experimental: The activity of CDK2 kinase in vitro was tested by the following method: • Final buffer: • 100 mM 4-hydroxyethyl piperazine ethanesulfonic acid, pH 7.5; • 0.1% bovine serum albumin; • 0.01% Triton X-100; • 1 mM dithiothreitol; • 5 mM magnesium chloride; • 10 μM sodium orthovanadate; • 10 μM sodium P-glycerophosphate; • 10 μM ATP; • 1% DMSO (from the compound to be tested); • Substrate Peptide: 1 μM FAM-[…]-OH, wherein FAM is 5-carboxyfluorescein; • 0.1 nM CDK2/human cyclin E.
(§1) 5 μL of buffer, 0.1 μL of compound to be tested (DMSO, 100 times the highest concentration) and 5 μL of substrate peptide buffer were added to a 384-well plate. The reaction was terminated with EDTA after culturing at 25° C. for 6 hours. Electrophoresis reading was started (Caliper LabChip® 3000 Drug Discovery System, blue laser (480 nm) for excitation, green CCD (520 nm) for detection of CCD2).

CDK6/human cyclin D3 = target: T1, CDK6/human cyclin D3 (Homo sapiens, UniProt Q00534); experiment: Determination of activity of CDK6 kinase (Caliper mobility shift); format: biochemical; conditions: 300 μM ATP, 2 nM enzyme, 25° C. 3 hours; read-out: CDK6/CycD3 IC50
T1 construct: purchased Carna 04-107
Experimental: The activity of CDK6 kinase in vitro was tested by the following method: • 2 nM CDK6/human cyclin D3 (Carna, No. 04-107) • Final buffer: • 100 mM 4-hydroxyethyl piperazine ethanesulfonic acid, pH 7.5; • 0.1% bovine serum albumin; • 0.01% Triton X-100; • 1 mM dithiothreitol; • 5 mM magnesium chloride; • 10 μM sodium orthovanadate; • 10 μM sodium P-glycerophosphate; • 300 μM ATP; • 1% DMSO (from the compound to be tested); • Substrate peptide: Dyrktide;
as §1, with “3” for “6”

CDK4/human cyclin D1 = CDK4/human cyclin D1 (Homo sapiens, UniProt P11802); experiment: Determination of activity of CDK4 kinase (Caliper mobility shift); format: biochemical; conditions: 25 μM ATP, 5 nM enzyme, 25° C. 6 hours; read-out: CDK4/CycD1 IC50
Experimental: The activity of CDK4 kinase in vitro was tested by the following method: • Final buffer: • 100 mM 4-hydroxyethyl piperazine ethanesulfonic acid, pH 7.5; • 0.1% bovine serum albumin; • 0.01% Triton X-100; • 1 mM dithiothreitol; • 5 mM magnesium chloride; • 10 μM sodium orthovanadate; • 10 μM sodium P-glycerophosphate; • 25 μM ATP; • 1% DMSO (from the compound to be tested); • Substrate Peptide: 1 μM FAM-[…]-NH2 segment, wherein FAM is 5-carboxyfluorescein; • 5 nM CDK4/human cyclin D1.
as §1

Sequence of CDK4/human cyclin D1 (P11802 whole entry): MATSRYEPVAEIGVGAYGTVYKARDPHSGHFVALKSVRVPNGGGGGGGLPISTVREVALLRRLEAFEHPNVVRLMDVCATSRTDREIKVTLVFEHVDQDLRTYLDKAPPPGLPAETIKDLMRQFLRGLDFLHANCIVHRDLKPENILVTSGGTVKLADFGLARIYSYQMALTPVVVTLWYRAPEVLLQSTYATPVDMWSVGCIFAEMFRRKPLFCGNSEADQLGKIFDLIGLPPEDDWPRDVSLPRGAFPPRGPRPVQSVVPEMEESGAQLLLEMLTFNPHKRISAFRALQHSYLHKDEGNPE
Sequence of CDK4/human cyclin D1 (P24385 whole entry partner): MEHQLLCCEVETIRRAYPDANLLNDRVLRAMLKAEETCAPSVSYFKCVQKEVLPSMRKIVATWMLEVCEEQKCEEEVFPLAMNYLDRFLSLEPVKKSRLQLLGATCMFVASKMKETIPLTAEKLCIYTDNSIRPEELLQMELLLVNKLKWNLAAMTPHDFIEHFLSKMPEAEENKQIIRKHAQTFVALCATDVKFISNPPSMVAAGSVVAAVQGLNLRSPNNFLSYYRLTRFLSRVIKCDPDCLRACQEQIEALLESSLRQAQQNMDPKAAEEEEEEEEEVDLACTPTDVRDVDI
T1 sequence (Q00534 whole entry): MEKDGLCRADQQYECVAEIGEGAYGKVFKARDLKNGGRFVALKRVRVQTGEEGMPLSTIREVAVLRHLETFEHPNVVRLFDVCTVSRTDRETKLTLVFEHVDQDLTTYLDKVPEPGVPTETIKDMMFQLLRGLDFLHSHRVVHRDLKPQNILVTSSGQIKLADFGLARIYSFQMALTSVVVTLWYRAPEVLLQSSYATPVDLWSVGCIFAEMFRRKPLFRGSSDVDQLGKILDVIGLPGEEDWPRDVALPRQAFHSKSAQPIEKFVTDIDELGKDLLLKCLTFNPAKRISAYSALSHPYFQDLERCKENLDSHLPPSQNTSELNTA
T1 sequence (P30281 whole entry partner): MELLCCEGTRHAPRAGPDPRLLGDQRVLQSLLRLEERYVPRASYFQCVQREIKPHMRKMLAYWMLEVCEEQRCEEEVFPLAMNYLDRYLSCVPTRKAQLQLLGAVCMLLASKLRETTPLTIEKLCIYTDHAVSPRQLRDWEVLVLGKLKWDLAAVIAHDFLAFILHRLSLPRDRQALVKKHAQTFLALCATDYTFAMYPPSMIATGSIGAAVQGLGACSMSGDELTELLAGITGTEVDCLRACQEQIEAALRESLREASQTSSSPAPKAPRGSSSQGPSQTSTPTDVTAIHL

| Compound | IC50 (MDA-MB-468 cells) [nM] | IC50 (CDK2/human cyclin E) [nM] | IC50 (CDK6/human cyclin D3) [nM] | IC50 (CDK4/human cyclin D1) [nM] |
| --- | --- | --- | --- | --- |
| Cc1nc2c(F)cc(-c3nc(Nc4ccc(N5CCC(N(C)CCO)CC5)cn4)ncc3F)cc2n1C(C)C [Compound 1963] | 459 | 101 | 1 | 1.78 |
| CNC1CCN(c2ccc(Nc3ncc(F)c(-c4cc(F)c5nc(C)n(C(C)C)c5c4)n3)nc2)CC1 [Compound 1967] | 682 | 122 | 1.23 | 0.17 |
| CC(C)n1c(CF)nc2c(F)cc(-c3nc(Nc4ccc(CN5CCC(N(C)C)CC5)cn4)ncc3F)cc21 [Compound 1975] | 457 | 8.2 | 6.7 | 1.55 |
| CCN1CCN(Cc2ccc(Nc3ncc(F)c(-c4cc(F)c5nc(CF)n(C(C)C)c5c4)n3)nc2)CC1 [Compound 1978] | 1150 | 459 | 9.8 | 2.6 |
| Cc1nc2c(F)cc(-c3nc(Nc4ccc(CN5CCN(CCO)CC5)cn4)ncc3F)cc2n1C(C)C [Compound 1979] | 1390 | 163 | 4.1 | 0.83 |
| CCN1CCN(c2ccc(Nc3ncc(F)c(-c4cc(F)c5nc(CF)n(C(C)C)c5c4)n3)nc2)CC1 [Compound 1985] | 454 | 128 | 3 | 0.98 |
| Cc1nc2c(F)cc(-c3nc(Nc4ccc(N5CCN(CCO)CC5)cn4)ncc3F)cc2n1C(C)C [Compound 1986] | 573 | 95 | 1.8 | 1.2 |
| Cc1nc2c(F)cc(-c3nc(Nc4ccc(N5CCN(CC(C)O)CC5)cn4)ncc3F)cc2n1C(C)C (centres unmarked) [Compound 1987] | 345 | 355 | 5.9 | 1.2 |
| COCCN1CCN(c2ccc(Nc3ncc(F)c(-c4cc(F)c5nc(C)n(C(C)C)c5c4)n3)nc2)CC1 [Compound 1988] | 529 | 92 | 1.1 | 0.75 |
| CCN1CCN(Cc2ccc(Nc3ncc(F)c(-c4cc(F)c5nc(CO)n(C(C)C)c5c4)n3)nc2)CC1 [Compound 1994] | 485 | 82 | 8.7 | 0.67 |

Second part, the molecule after the results:

| IC50 (MDA-MB-468 cells) [nM] | IC50 (CDK2/human cyclin E) [nM] | IC50 (CDK6/human cyclin D3) [nM] | IC50 (CDK4/human cyclin D1) [nM] | Compound |
| --- | --- | --- | --- | --- |
| 126 | 313 | 8.6 | 1.4 | Cc1nc2c(F)cc(-c3nc(Nc4ccc(CN5CCC(N(C)CCO)CC5)cn4)ncc3F)cc2n1C(C)C [Compound 1964] |
| 344 | 231 | 3.9 | 1.25 | CC(C)n1c(CF)nc2c(F)cc(-c3nc(Nc4ccc(N5CCC(N(C)C)CC5)cn4)ncc3F)cc21 [Compound 1984] |
| 276 | 5.3 | 4.8 | 1.54 | CC(C)n1c(CF)nc2c(F)cc(-c3nc(Nc4ccc(N5CCC(N(C)CCO)CC5)cn4)ncc3F)cc21 [Compound 1990] |
| 186 | 6.2 | 10.1 | 1.75 | CC(C)n1c(CF)nc2c(F)cc(-c3nc(Nc4ccc(CN5CCC(N(C)CCO)CC5)cn4)ncc3F)cc21 [Compound 1995] |
